Patent EP2682119A1, “Aromatic N-heterocycle derivatives for use as medicine” (Université Libre de Bruxelles, priority 2012, dated 2014)
Counter-ions that a name gives are not always drawn. Like-named read-outs stand apart in the source and are kept apart here.

Tests used:
[1] = target: T1, LDL oxidation carried out by MPO (Homo sapiens, UniProt P05164); test: Inhibition of LDL oxidation by MPO, ELISA with Mab AG9; format: biochemical
T1 construct: made in house
T1 sequence (P05164 49-745): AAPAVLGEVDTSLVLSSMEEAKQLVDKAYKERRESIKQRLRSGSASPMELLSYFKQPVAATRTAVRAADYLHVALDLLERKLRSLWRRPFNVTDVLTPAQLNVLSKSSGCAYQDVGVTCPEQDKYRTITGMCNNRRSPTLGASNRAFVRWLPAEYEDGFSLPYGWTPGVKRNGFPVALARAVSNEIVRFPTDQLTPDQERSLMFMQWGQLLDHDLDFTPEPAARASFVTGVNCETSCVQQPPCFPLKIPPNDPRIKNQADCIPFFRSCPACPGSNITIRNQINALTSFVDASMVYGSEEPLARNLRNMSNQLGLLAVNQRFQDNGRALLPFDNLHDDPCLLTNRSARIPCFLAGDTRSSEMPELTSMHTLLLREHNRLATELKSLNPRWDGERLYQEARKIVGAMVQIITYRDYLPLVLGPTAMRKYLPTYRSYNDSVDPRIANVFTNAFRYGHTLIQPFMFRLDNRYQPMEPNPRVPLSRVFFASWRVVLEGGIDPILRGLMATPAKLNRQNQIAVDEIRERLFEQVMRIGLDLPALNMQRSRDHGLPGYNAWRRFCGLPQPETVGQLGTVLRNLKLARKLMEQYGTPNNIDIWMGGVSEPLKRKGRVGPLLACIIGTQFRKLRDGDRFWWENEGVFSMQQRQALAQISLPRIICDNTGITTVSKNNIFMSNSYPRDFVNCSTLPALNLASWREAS
Protocol: Low-density lipoproteins oxidation inhibition
Preparation of the Recombinant Enzyme and of LDL
(§1) Recombinant MPO was prepared as previously described. Each batch solution is characterized by its protein concentration (mg/mL), its activity (U/mL), and its specific activity (U/mg). The chlorination activity was determined according to Hewson and Hager. […] The different steps were carried out in the dark, and the protein concentration was measured by the Lowry assay for both MPO and LDL.
Inhibition of LDL Oxidation
LDL oxidation was carried out at 37 °C in a final volume of 500 µL. The reaction mixture contained the following reagents at the final concentrations indicated between brackets: pH 7.2, PBS buffer, MPO (1 µg/mL), LDL (1000 µg/mL), 2 µL 1 N HCl (4 mM), one of the drugs at different concentrations, and H2O2 (100 µM). The reaction was stopped after 5 min by cooling the tubes in ice. The assay was performed as described by Moguilevsky et al. in a NUNC maxisorp plate (VWR, Zaventem, Belgium): 200 ng/well of LDL was coated overnight at 4 °C in a sodium bicarbonate pH 9.8 buffer (100 µL) Afterward, the plate was washed with TBS 80 buffer and then saturated during 1 h at 37 °C with the PBS buffer containing 1% BSA (150 µL/well). […] After incubation for 1 h at 37 °C, the plate was washed four times with the TBS 80 buffer and a 3000 times diluted solution of IgG antimouse alkaline phosphatase (Promega, Leiden, The Netherlands) in the same buffer was added (100 µL/well). The wells were washed again four times and a revelation solution (150 µL/well) containing 5 mg of para-nitrophenyl phosphate in 5 mL of diethanolamine buffer was added for 30 min at room temperature. The reaction was stopped with 60 µL/well of 3 N NaOH solution. […] Results were expressed as IC50.

recombinant MPO = target: T2, recombinant MPO (Homo sapiens, UniProt P05164); test: Myeloperoxidase inhibition (MPO) assay, taurine chloramine production by the MPO/H2O2/Cl- system; format: biochemical; conditions: for inhibition properties against myeloperoxidase enzyme: compared with the corresponding compound wherein the fluor atom is at position 5 on the indole ring
T2 construct: made in house
T2 sequence (P05164 49-745): T1 sequence (P05164 49-745)
Protocol: Myeloperoxidase inhibition (MPO) assay procedure
The assay was based on the production of taurine chloramine produced by the MPO/H2O2/Cl- system in the presence of a selected inhibitor at defined concentration. The reaction mixture contained the following reagents in a final volume of 200 µL: pH 7.4 phosphate buffer (10 mM PO4^3-/300 mM NaCl), taurine (15 mM), the compound to be tested (up to 20 µM), and the fixed amount of the recombinant MPO (6.6 µL of MPO batch solution diluted 2.5 times, 40 nM). When necessary, the volume was adjusted with water. This mixture was incubated at 37 °C and the reaction initiated with 10.0 µL of H2O2 (100 µM). After 5 min, the reaction was stopped by the addition of 10 µL of catalase (8 U/µL).
as §1

[2] = target: T3, human 5-HT transporter (hSERT) (Homo sapiens, UniProt P31645); test: 5-HT reuptake inhibition, [3H]5-HT uptake in transfected HEK-293 MSR cells; format: cell-based; conditions: serotonin reuptake inhibition
T3 construct: expressed in transfected cells; host or cells: HEK-293 MSR cells (Invitrogen), plasmid pcDNA3.1-hSERT
Protocol: Assesment of 5-HT reuptake inhibition.
Inhibition assessment of 5-HT reuptake was performed as follows. The mammalian expression plasmid pcDNA3.1 containing human 5-HT transporter (hSERT) cDNA has been described previously. HEK-293 MSR cells (Invitrogen) were cultured as monolayers in Dulbecco's modified Eagle's medium (BioWhitaker) supplemented with 10% fetal calf serum (Invitrogen), 100 units/mL penicillin, 100 µg/mL streptomycin (BioWhitaker) and 6 µg/mL Geneticin (Invitrogen) at 95% humidity, 5% p(CO2) and 37°C. Cells were detached from the culture flasks by Versene (Invitrogen) and trypsin/EDTA (BioWhitaker) treatment for subculturing or seeding into white TC-microtiter plates (Nunc). Transfection and measurement of [^3H]5-HT (PerkinElmer Life Sciences) uptake was performed as described by Larsen et al. (2004) except that HEK-293 MSR cells (Invitrogen) were used instead of COS-1 cells.

[3] = inhibition of LDL oxidation, Table 2, read-out: IC50
[4] = inhibition of myeloperoxidase enzyme, Table 1, compounds of the invention, read-out: IC50
[5] = Table 3, 3-amidoindole analogues, read-out: MPO IC50
[6] = Table 3, 3-amidoindole analogues, oxidation of LDL, read-out: Mox LDL IC50

T3 sequence (P31645 whole entry): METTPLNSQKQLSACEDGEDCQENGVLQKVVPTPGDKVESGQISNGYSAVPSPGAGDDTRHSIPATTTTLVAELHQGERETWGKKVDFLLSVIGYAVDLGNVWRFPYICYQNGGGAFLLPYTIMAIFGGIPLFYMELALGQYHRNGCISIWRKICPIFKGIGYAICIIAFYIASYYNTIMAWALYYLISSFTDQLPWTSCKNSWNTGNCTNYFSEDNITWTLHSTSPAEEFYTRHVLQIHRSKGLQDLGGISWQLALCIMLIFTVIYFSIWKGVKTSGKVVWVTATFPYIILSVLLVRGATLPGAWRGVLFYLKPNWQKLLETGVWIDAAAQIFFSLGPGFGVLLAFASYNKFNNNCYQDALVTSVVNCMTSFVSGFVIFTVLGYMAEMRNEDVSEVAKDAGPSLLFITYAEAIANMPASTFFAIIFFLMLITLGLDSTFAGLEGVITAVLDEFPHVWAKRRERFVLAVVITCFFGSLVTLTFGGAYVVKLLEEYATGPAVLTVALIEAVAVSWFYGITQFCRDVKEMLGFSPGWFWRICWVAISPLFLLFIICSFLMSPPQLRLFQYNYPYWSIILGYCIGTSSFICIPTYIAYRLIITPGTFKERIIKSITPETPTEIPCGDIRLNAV

| SMILES | IC50 [1, 3] [nM] | IC50 (recombinant MPO; [4]) [nM] | Ki [2] [nM] | inhibition properties against myeloperoxidase enzyme (recombinant MPO) | IC50 (recombinant MPO; [5]) [nM] | IC50 [1, 6] [nM] |
| --- | --- | --- | --- | --- | --- | --- |
| NCCSCCCc1c[nH]c2ccc(F)cc12 [Compound 33, 3-(3-(2-Aminoethylthio)propyl)-5-fluoro-1H-indole oxalate] | 21 |  |  |  |  |  |
| CCN(CCc1c[nH]c2ccc(F)cc12)S(C)(=O)=O [Compound 35, 5-Fluoro-3-(2-(N-ethylmethanesulfonamido)ethyl)-1H-indole] | 27 | 14 | 174 |  |  |  |
| NCCc1c[nH]c2c(F)cccc12.O=C(O)C(=O)O [Compound 26, 3-(2-Aminoethyl)-7-fluoro-1H-indole oxalate] |  |  |  | enhanced inhibition properties |  |  |
| CCN(CCCc1c[nH]c2ccc(F)cc12)S(C)(=O)=O [Compound 36, 5-Fluoro-3-(3-(N-ethylmethanesulfonamido)propyl)-1H-indole] | 27 |  |  |  |  |  |
| NCCCc1c[nH]c2c(F)cccc12.O=C(O)C(=O)O [Compound 27, 3-(3-Aminopropyl)-7-fluoro-1H-indole oxalate] |  |  |  | enhanced inhibition properties |  |  |
| NCCSCCc1c[nH]c2ccc(F)cc12 [Compound 32, 3-(2-(2-Aminoethylthio)ethyl)-5-fluoro-1H-indole oxalate] | 8 | 4 |  |  |  |  |
| NCCCCc1c[nH]c2c(F)cccc12 [Compound 30, 3-(4-Aminobutyl)-7-fluoro-1H-indole oxalate] | 21 | 6 |  |  |  |  |
| NC(=O)CCCCc1c[nH]c2ccc(F)cc12 [Compound 58, 3-(5-(pentylamido)) -5-fluoro-1H-indole] |  |  |  |  | 35 | 44 |
| NC(=O)CCCc1c[nH]c2ccc(F)cc12 [Compound 56, 3-(4-(Butylamido))-5-fluoro-1H-indole] | 18 | 18 | 631 |  | 18 | 18 |
| NC(=O)CCCCc1c[nH]c2c(F)cccc12 [Compound 57, 3-(5-(pentylamido)) -7-fluoro-1H-indole] |  |  |  |  | 39 | 43 |
| NC(=O)CCCc1c[nH]c2c(F)cccc12 [Compound 54, 3-(4-(butylamido))-7-fluoro-1H-indole] | 24 |  |  |  | 26 | 24 |
| ONCCCc1c[nH]c2ccc(F)cc12 [Compound 45, 3-(3-N-Hydroxylaminopropyl)-5-fluoro-1H-indole] | 21 | 11 | 20 |  |  |  |
| CNC(=O)CCCc1c[nH]c2ccc(F)cc12 [Compound 59, 3-(4-(N-methyl, butylamido))-5-fluoro-1H-indole] |  |  |  |  | 40 | 95 |
| N#CSCCCc1c[nH]c2ccc(F)cc12 [Compound 34, 5-Fluoro-3-(3-thiocyanatopropyl) 1H-indole] | 23 | 5 | 212 |  |  |  |
| NCCSCCc1c[nH]c2c(F)cccc12 [Compound 43, 3-(2-(2-Aminoethylthio)ethyl)-7-fluoro-1H-indole oxalate] | 6 | 3 | 25 |  |  |  |
